# “Also recorded” adds a separate entry of the source. Like-named read-outs stand apart in the source and are kept apart here.
# How the values were obtained:
# [1] = system: primary human renal mesangial cells (HRMCs); experiment: ET-1 induced proliferation (BrdU) of primary human renal mesangial cells; format: cell-based; details: 10 ng/mL ET-1, read-out: IC50, ET-1 induced HRMC proliferation
# g-ddY mice = experiment: Albuminuria (UACR) in g-ddY mouse model of IgA nephropathy; format: in vivo
# Source text: The grouped ddY (g-ddY) mouse is a spontaneous model of early-onset IgA nephropathy characterized by IgA immune complex deposition in the mesangium of the kidney, leading to significant proteinuria, glomerular hypercellularity, mesangioproliferative glomerular lesions, glomerular sclerosis and reduced kidney function, all hallmarks of human IgA nephropathy (J Am Soc Nephrol 23: 1364-1374, 2012). Consistent with human IgA nephropathy, the mesangial IgA deposits in the g-ddY mouse are also accompanied by deposition of IgG and complement C3.
# [2] = system: canonical signaling pathways in kidney tissue of g-ddY mice; experiment: Ingenuity Pathway Analysis (IPA) canonical pathways, g-ddY mouse kidney RNA-seq; format: in vivo
# [3] = 10 mg/kg/day, approximately 5 days
smiles,measurement,setting,value
"CCCCN(CCCC)C(=O)CN1C[C@H](c2ccc3c(c2)OCO3)[C@@H](C(=O)O)[C@@H]1c1ccc(OC)cc1 [Atrasentan, (2R,3R,4S)-4-(1,3-benzodioxol-5-yl)-1-[2-(dibutylamino)-2-oxoethyl]-2-(4-methoxyphenyl)pyrrolidine-3-carboxylic acid]",IC50,[1]; 48 hours,4.2 nM
same,IC50,"[1]; Homo sapiens, Mesangial cell, 48 h",~5.1 nM
same,IC50,"[1]; Homo sapiens, Mesangial cell, 72 h",~50.8 nM
same,mice with reduced albuminuria,g-ddY mice; 10 mg/kg/day group,⅔
same,reduction of UACR from baseline,"g-ddY mice; 10 mg/kg/day in drinking water, approximately 5 days",28±44%
same,albuminuria vs baseline (paired t-test),g-ddY mice; [3],not significantly changed from baseline
same,effect on UACR compared to control group (un-paired t-test),g-ddY mice; [3],not significant
same,reduction of UACR from baseline,"g-ddY mice; 20 mg/kg/day in drinking water, approximately 5 days",62±8%
same,effect on UACR compared to control group (un-paired t-test),"g-ddY mice; 20 mg/kg/day, approximately 5 days, P=0.0498",statistically significant compared to the control group; also recorded: significantly reduced albuminuria
same,albuminuria vs baseline (paired t-test),"g-ddY mice; 20 mg/kg/day, approximately 5 days, P=0.0593",reduced from baseline to a similar extent
same,reduction of UACR from baseline,"g-ddY mice; 30 mg/kg/day in drinking water, approximately 5 days",63±6%
same,albuminuria vs baseline (paired t-test),"g-ddY mice; 30 mg/kg/day, approximately 5 days","significantly (P=0.0002, paired two-sided t-test) reduced albuminuria from baseline"
same,effect on UACR compared to control group (un-paired t-test),"g-ddY mice; 30 mg/kg/day, approximately 5 days, P=0.029",statistically significant compared to the control group; also recorded: significantly reduced albuminuria
same,magnitude of albuminuria lowering (reduction from baseline),"g-ddY mice; 20 and 30 mg/kg/day, approximately 5 days",> 60%
same,Acute Myeloid Leukemia Signaling z-score,[2]; 10 mg/kg/day,−0.258
same,Acute Phase Response Signaling z-score,[2]; 10 mg/kg/day,−1.177
same,Apelin Cardiac Fibroblast Signaling Pathway z-score,[2]; 10 mg/kg/day,1.134
same,CXCR4 Signaling z-score,[2]; 10 mg/kg/day,0
same,Cardiac Hypertrophy Signaling (Enhanced) z-score,[2]; 10 mg/kg/day,0.361
same,Folate Polyglutamylation z-score,[2]; 10 mg/kg/day,−1
same,GM-CSF Signaling z-score,[2]; 10 mg/kg/day,−0.243
same,GP6 Signaling Pathway z-score,[2]; 10 mg/kg/day,0
same,Glioblastoma Multiforme Signaling z-score,[2]; 10 mg/kg/day,1
same,Glioma Signaling z-score,[2]; 10 mg/kg/day,0.5
same,Gluconeogenesis I z-score,[2]; 10 mg/kg/day,0.905
same,Glutathione Redox Reactions I z-score,[2]; 10 mg/kg/day,−0.302
same,Glycolysis I z-score,[2]; 10 mg/kg/day,0.577
same,Gα12/13 Signaling z-score,[2]; 10 mg/kg/day,−1.279
same,Gαg Signaling z-score,[2]; 10 mg/kg/day,1
same,HGF Signaling z-score,[2]; 10 mg/kg/day,−0.688
same,Hepatic Fibrosis Signaling Pathway z-score,[2]; 10 mg/kg/day,−0.25
same,IGF-1 Signaling z-score,[2]; 10 mg/kg/day,0.243
same,IL-8 Signaling z-score,[2]; 10 mg/kg/day,0.365
same,Integrin Signaling z-score,[2]; 10 mg/kg/day,−0.928
same,LPS/IL-1 Mediated Inhibition of RXR Function z-score,[2]; 10 mg/kg/day,0.535
same,Lymphotoxin β Receptor Signaling z-score,[2]; 10 mg/kg/day,−1.508
same,Macropinocytosis Signaling z-score,[2]; 10 mg/kg/day,0.277
same,NF-κB Activation by Viruses z-score,[2]; 10 mg/kg/day,0
same,NF-κB Signaling z-score,[2]; 10 mg/kg/day,0.507
same,NRF2-mediated Oxidative Stress Response z-score,[2]; 10 mg/kg/day,0.471
same,Oxidative Phosphorylation z-score,[2]; 10 mg/kg/day,−0.309
same,PDGF Signaling z-score,[2]; 10 mg/kg/day,−0.5
same,PEDF Signaling z-score,[2]; 10 mg/kg/day,0
same,PI3K Signaling in B Lymphocytes z-score,[2]; 10 mg/kg/day,0.426
same,PI3K/AKT Signaling z-score,[2]; 10 mg/kg/day,0.447
same,PTEN Signaling z-score,[2]; 10 mg/kg/day,−0.426
same,Paxillin Signaling z-score,[2]; 10 mg/kg/day,−1
same,Relaxin Signaling z-score,[2]; 10 mg/kg/day,−0.535
same,STAT3 Pathway z-score,[2]; 10 mg/kg/day,−0.218
same,Sirtuin Signaling Pathway z-score,[2]; 10 mg/kg/day,0.849
same,Small Cell Lung Cancer Signaling z-score,[2]; 10 mg/kg/day,−0.905
same,Sperm Motility z-score,[2]; 10 mg/kg/day,1.213
same,Sphingosine-1-phosphate Signaling z-score,[2]; 10 mg/kg/day,−0.218
same,TCA Cycle II (Eukalyotic) z-score,[2]; 10 mg/kg/day,0.277
same,TNFR2 Signaling z-score,[2]; 10 mg/kg/day,−1.89
same,Thrombin Signaling z-score,[2]; 10 mg/kg/day,1.3
same,Toll-like Receptor Signaling z-score,[2]; 10 mg/kg/day,−0.302
same,Tryptophan Degradation III (Eukalyotic) z-score,[2]; 10 mg/kg/day,0.378
same,Xenobiotic Metabolism General Signaling Pathway z-score,[2]; 10 mg/kg/day,−0.577
same,Acute Myeloid Leukemia Signaling z-score,[2]; 20 mg/kg/day,−0.853
same,Acute Phase Response Signaling z-score,[2]; 20 mg/kg/day,−1.298
same,Apelin Cardiac Fibroblast Signaling Pathway z-score,[2]; 20 mg/kg/day,0.577
same,CXCR4 Signaling z-score,[2]; 20 mg/kg/day,0.333
same,Cardiac Hypertrophy Signaling (Enhanced) z-score,[2]; 20 mg/kg/day,−0.396
same,Folate Polyglutamylation z-score,[2]; 20 mg/kg/day,0.447
same,GM-CSF Signaling z-score,[2]; 20 mg/kg/day,−1.46
same,GP6 Signaling Pathway z-score,[2]; 20 mg/kg/day,−1.715
same,Glioblastoma Multiforme Signaling z-score,[2]; 20 mg/kg/day,−0.16
same,Glioma Signaling z-score,[2]; 20 mg/kg/day,−0.816
same,Gluconeogenesis I z-score,[2]; 20 mg/kg/day,−0.302
same,Glutathione Redox Reactions I z-score,[2]; 20 mg/kg/day,−0.277
same,Glycolysis I z-score,[2]; 20 mg/kg/day,0
same,Gα12/13 Signaling z-score,[2]; 20 mg/kg/day,−0.707
same,Gαg Signaling z-score,[2]; 20 mg/kg/day,−0.822
same,HGF Signaling z-score,[2]; 20 mg/kg/day,0
same,Hepatic Fibrosis Signaling Pathway z-score,[2]; 20 mg/kg/day,−3.181
same,IGF-1 Signaling z-score,[2]; 20 mg/kg/day,−0.408
